We go through 4 substances from patent EP3783012A1, “AN ANTIMICROBIAL PEPTIDE” (priority 2019, dated 2021).

Where no end group is shown, it is not given here.

One series concerns human THP-1 macrophages. Put plainly: Ex-vivo viability assay (MTT). The format is cell-based. On the procedure: Ex-vivo viability assay: Cellular viability was assessed in human THP-1 macrophages by a colorimetric assay that makes use of thiazolyl blue tetrazolium bromide (MTT, Sigma). Cells were grown in Roswell Park Memorial Institute (RPMI) medium supplemented with 10% of heat inactivated fetal bovine serum (FBS), 1% L-glutamine and 1% penicillin-streptomycin. At 90% confluence, cells were centrifuged and diluted to a 1:5 ratio with complete RPMI. The monocytes were differentiated into macrophages using […] phorbol 12-myristate 13-acetate (PMA) before being seeded in a 96 well plate at a density of 1.0 x 10^4 cells/well and incubated in the presence of 5% CO2 for 72 hours at 37°C. Following this, cells were treated with increasing concentrations (0.05, 0.5, 5, 50, 500 µg/mL) of Pep_V2QV5D, magainin 2 or colistin before re-incubation for a further 24 hours. Post-incubation, 10 µL of MTT was added to each well at a final concentration of 500 µg/mL and incubated at 5% CO2 for 2 hours at 37°C. Formazan crystals were dissolved by the addition of 100 µL 100% DMSO and gentle shaking for 5 minutes at room temperature. The absorbance was measured at 570nm in a microplate spectrophotometer (Synergy H1, Biotek). Maximum toxicity was determined by cells incubated with 100% DMSO. Cell viability was calculated as a per cent of a control treated with PBNS. Three technical replicates were performed each day on three independent days.

For series [1] the following is noted: in humans; cited from earlier work.
In a further series the test system is colSAB. As to the kind of experiment: Complete Elimination (CE) Drop Plate method. The format is cell-based, A. baumannii. Particulars: 90 minutes challenge in PBNS. On the procedure: (§1) Complete Elimination (CE) Drop Plate method: The CE method was primarily used as the antimicrobial susceptibility testing method for peptides used in this study. This was performed to avoid any interference of cations within the test media or buffer on the bioactivity of the peptides. This assay was performed by the method outlined by Chen et al. (2003) with minor modifications. Briefly, bacteria were grown overnight and sub-cultured to mid exponential phase. PBNS was used to make serial dilutions of bacteria in a 96 well plate. The appropriate volume of peptide was added to the wells at a final volume of 100 µL. As a control, PBNS was added to the bacterial suspensions without any peptide. The microtiter plate was incubated for 90 minutes at 37°C. Post challenge, 10 µL from each well was spotted onto appropriate media, depending on the strain. This was conducted in triplicate. The spots were left to dry, and the plates were incubated inverted. The first concentration to inhibit growth across all bacterial dilutions was determined as the CE concentration. Surviving colonies at sub-CE concentrations were counted after 18 hours incubation at 37°C. The reduction in colony forming units (CFU) was assessed relative to the untreated control and the log reduction induced by peptide treatment was calculated. All antimicrobial activity assays were performed in triplicate and on independent days.

The test system of series [2] is colRAB. Put plainly: Complete Elimination (CE) Drop Plate method. Conditions: 90 minutes challenge in PBNS, tested alone. In kind it is cell-based, A. baumannii. On the procedure:
as §1

In series [3] the test system is colRAB. Put plainly: Synergy study, Fractional inhibitory concentration (FIC) by CE drop plate method. Particulars: Pep_V2QV5D combined with colistin. In kind it is cell-based, A. baumannii. On the procedure:
Synergy studies were conducted using the above described CE drop plate method, however two peptides were mixed in a series of concentration combinations using PBNS as a diluent before bacterial inoculation and subsequent incubation. The highest concentration combination tested was the individual CE concentrations of Pep_V2QV5D and colistin, which were 12 µg/mL and 8 µg/mL, respectively. The amounts of each compound were then reduced sequentially in various proportions until the lowest possible active combination was identified.
Traditionally, the FIC in a drug mixture is defined as the sum of the FICs (ΣFIC) and is calculated with the equation; ΣFIC = FICA + FICB = (CEcombA/CEA) + (CEcombB/CEB) [formula]
Where CEA and CEB are the killing concentrations of individual peptides A and B, respectively, and CEcombA and CEcombB are the killing concentrations of the peptides in combination. In this work we used a similar concept and analysed the ratios of FICA and FICB. 'Synergy' was interpreted as a FIC ≤ 0.5, 'antagonism' as FIC > 4.0 and 'no interaction' as FIC > 0.5-4.0 [40].

A further series deals with A. baumannii. As to the kind of experiment: In vitro resistance study (14 sequential passages at sub-inhibitory concentrations). The format is cell-based. Particulars: repeated exposure to sub-inhibitory concentrations. On the procedure:
In vitro resistance study: This assay was conducted as outlined by Ge et al. 1999 with some modifications. Briefly, the in vitro passage study involved exposing bacteria diluted to […] in PBNS to Pep_V2QV5D at one-half of the previously established bactericidal concentration. After 90 minutes of incubation at 37°C, 10 µL was spotted in triplicate on MHB and incubated again overnight. Post-incubation, surviving colonies were collected, diluted in PBNS and adjusted to […] before repeated treatment with the sub-killing concentration of Pep_V2QV5D. The CE concentration was determined prior to the initiation of the study, after the 4th, 7th, 11th and 14th passages. If the CE concentration after the fourth passage was greater than the original killing concentration, then for passes 5, 6, and 7, the amount of peptide used during the bacterial challenge was increased to one-half of that new CE concentration. This was continued over a 14-day course. Magainin and colistin were used as controls for the in vitro resistance study. This assay was performed in independent duplicates.

As for VRGLAPKKSLWPFGGPFKSPFN [Pep_V2QV5D], in the series with human THP-1 macrophages, the “toxic concentration compared to the concentration required for antimicrobial action (therapeutic index)” value is “over 40 times”.
As to GIGKFLHSAKKFGKAFVGEIMNS [magainin 2], in the series on human THP-1 macrophages (50 µg/mL, 24 hours, MTT), the decrease in viability was 22%.
A word on the half-life: it is how long it takes for the measured level to halve. With vasopressin, the half-life in series [1] is 10 to 35 min.
Turning to colistin, the “Complete Elimination values (CE concentration)” value was 0.25 µg/mL in the series on colSAB, 8 µg/mL in the series on colRAB [2] and 8 ^(R) µg/mL in the series on colRAB [2] (listed as Colistin). Further, the “CE concentration in combination” value with colRAB [3] worked out at 1 µg/mL. Besides, the “toxic concentration compared to the concentration required for antimicrobial action (therapeutic index)” value in the series on human THP-1 macrophages is 6.8 times. Besides, the “fold change in the CE concentration over 14 days” value with A. baumannii amounted to 16 fold.
